Experimental data: ChEMBL document CHEMBL4483862, “Open-source discovery of chemical leads for next-generation chemoprotective antimalarials” (2018)

Tested on: Plasmodium berghei
Assay: Luciferase/luciferin-expressing antifolate-resistant parasites were used to infect a culture of HepG2 cells that were pre-incubated with compounds. Infected hepatocytes emit light due to the luciferase reaction. Assay results are presented as the percent inhibition of light emission compared to control. […]
Assay type: functional
Settings: sporozoite; for IC90: read-out: LUCIFERASE INFECTION ASSAY - IC90

SMILES	IC90	further results
Cc1cccc(/C=C(\c2nc3ccccc3[nH]2)S(=O)(=O)c2ccccc2)c1	2.31 µM	IC50 (HEPG2TOX_HILL_SLOPE 1.77, HEPG2TOX_R_SQUARED 0.525, PBLUC_HILL_SLOPE 7.51, 3.20, PBLUC_R_SQUARED 0.576, 0.706, read-out: LUCIFERASE INFECTION ASSAY - IC50): 1.36 µM
CCCCCc1c(C(=O)OCC)[nH]c(C)c1C	> 13.9 µM	IC50 (HEPG2TOX_HILL_SLOPE 1.75, HEPG2TOX_R_SQUARED 0.784, PBLUC_HILL_SLOPE 1.37, PBLUC_R_SQUARED 0.743, read-out: LUCIFERASE INFECTION ASSAY - IC50): 5.49 µM
CC(C)[C@@H](CO)Nc1nccn2c(-c3cccc(OC(F)(F)F)c3)cnc12	6.18 µM	IC50 (HEPG2TOX_HILL_SLOPE 1.77, HEPG2TOX_R_SQUARED 0.938, PBLUC_HILL_SLOPE 1.99, PBLUC_R_SQUARED 0.624, read-out: LUCIFERASE INFECTION ASSAY - IC50): 2.05 µM
COCc1cccc(-c2cc(-c3cccc4ccccc34)cnc2N)c1	1.23 µM	IC50 (HEPG2TOX_HILL_SLOPE 1.78, HEPG2TOX_R_SQUARED 0.808, PBLUC_HILL_SLOPE 16.4, PBLUC_R_SQUARED 0.784, read-out: LUCIFERASE INFECTION ASSAY - IC50): 1.08 µM
FC(F)(F)Oc1cccc(-c2cnc3sc(NCCc4ccncc4)nn23)c1	> 8.14 µM	IC50 (HEPG2TOX_HILL_SLOPE 1.76, HEPG2TOX_R_SQUARED 0.88, read-out: LUCIFERASE INFECTION ASSAY - IC50): > 8.14 µM
COc1ccc(Nc2nc(NCC3CC3)nc3cc(-c4ccccc4)sc23)cc1OC	> 7.63 µM	IC50 (HEPG2TOX_HILL_SLOPE 1.76, HEPG2TOX_R_SQUARED 0.98, PBLUC_HILL_SLOPE 10.6, PBLUC_R_SQUARED 0.159, read-out: LUCIFERASE INFECTION ASSAY - IC50): 6.32 µM
C=CCNC(=O)NCC(=O)c1cc(C)n(-c2ccc(C(C)C)cc2)c1C	3.66 µM	IC50 (HEPG2TOX_HILL_SLOPE 1.75, HEPG2TOX_R_SQUARED 0.807, PBLUC_HILL_SLOPE 19, PBLUC_R_SQUARED 0.54, read-out: LUCIFERASE INFECTION ASSAY - IC50): 3.26 µM
CC1=NN(c2ccccc2)C(=O)/C(=C\NC(=O)c2cccc([N+](=O)[O-])c2)N1	8.07 µM	IC50 (HEPG2TOX_HILL_SLOPE 1.78, HEPG2TOX_R_SQUARED 0.224, PBLUC_HILL_SLOPE 3.78, PBLUC_R_SQUARED 0.384, read-out: LUCIFERASE INFECTION ASSAY - IC50): 4.51 µM
CN1C(=O)N(Cc2ccc3ccccc3c2)C(=O)C12CCN(Cc1cnn(-c3ccc(F)cc3)c1)CC2	2.54 µM	IC50 (HEPG2TOX_HILL_SLOPE 1.74, HEPG2TOX_R_SQUARED 0.906, PBLUC_HILL_SLOPE 10.4, PBLUC_R_SQUARED 0.489, read-out: LUCIFERASE INFECTION ASSAY - IC50): 2.06 µM
Cn1ccc2cc(-c3cnc4cnc(-c5ccc(N)nc5)cn34)ccc21	5.78 µM	IC50 (HEPG2TOX_HILL_SLOPE 1.74, HEPG2TOX_R_SQUARED 0.96, PBLUC_HILL_SLOPE 2.26, PBLUC_R_SQUARED 0.858, read-out: LUCIFERASE INFECTION ASSAY - IC50): 2.18 µM
Cc1nc(C(=O)NNC(=O)c2ccc(C(C)(C)C)cc2)cs1	6.76 µM	IC50 (HEPG2TOX_HILL_SLOPE 1.77, HEPG2TOX_R_SQUARED 0.966, PBLUC_HILL_SLOPE 4.32, PBLUC_R_SQUARED 0.361, read-out: LUCIFERASE INFECTION ASSAY - IC50): 4.06 µM
O=C(OCc1cn2cc(Cl)ccc2n1)c1cc([N+](=O)[O-])ccc1N1CCCC1	1.23 µM	IC50 (HEPG2TOX_HILL_SLOPE 1.77, HEPG2TOX_R_SQUARED 0.925, PBLUC_HILL_SLOPE 9.51, PBLUC_R_SQUARED 0.622, read-out: LUCIFERASE INFECTION ASSAY - IC50): 0.976 µM
Clc1cnc(N/N=C/c2sc(N3CCCCC3)nc2-c2cccs2)c(Cl)c1	9.96 µM	IC50 (HEPG2TOX_HILL_SLOPE 1.78, HEPG2TOX_R_SQUARED 0.499, PBLUC_HILL_SLOPE 5.62, PBLUC_R_SQUARED 0.563, read-out: LUCIFERASE INFECTION ASSAY - IC50): 6.74 µM
COc1ccc(-c2nonc2NC(=O)c2oc3ccc(F)cc3c2C)cc1	1.27 µM	IC50 (HEPG2TOX_HILL_SLOPE 1.77, HEPG2TOX_R_SQUARED 0.888, PBLUC_HILL_SLOPE 11.3, PBLUC_R_SQUARED 0.0148, read-out: LUCIFERASE INFECTION ASSAY - IC50): 1.05 µM
O=C(c1c[nH]c(-c2ccccn2)c1)c1cc(Cl)ccc1O	> 10 µM	IC50 (HEPG2TOX_HILL_SLOPE 1.74, HEPG2TOX_R_SQUARED 0.992, PBLUC_HILL_SLOPE 2.29, PBLUC_R_SQUARED 0.459, read-out: LUCIFERASE INFECTION ASSAY - IC50): 5.42 µM
CCCCc1[nH]nc2ccnc(-c3ccc(CO)cc3)c12	> 10 µM	IC50 (HEPG2TOX_HILL_SLOPE 1.75, HEPG2TOX_R_SQUARED 0.977, read-out: LUCIFERASE INFECTION ASSAY - IC50): > 10 µM

SMILES	IC90	further results
CCS(=O)(=O)N1CCC(C(=O)Nc2nnc(-c3ccc(Cl)cc3)o2)(c2ccccc2)CC1	1.21 µM	IC50 (HEPG2TOX_HILL_SLOPE 1.78, 1.25, HEPG2TOX_R_SQUARED 0.428, 0.956, PBLUC_HILL_SLOPE 18.9, PBLUC_R_SQUARED 0.689, read-out: LUCIFERASE INFECTION ASSAY - IC50): 1.07 µM
O=S(=O)(Nc1ccc(C(F)(F)F)cc1Cl)c1cc(C(F)(F)F)ccc1OCC(F)(F)F	3.28 µM	IC50 (HEPG2TOX_HILL_SLOPE 1.76, HEPG2TOX_R_SQUARED 0.989, PBLUC_HILL_SLOPE 2.99, PBLUC_R_SQUARED 0.37, read-out: LUCIFERASE INFECTION ASSAY - IC50): 1.57 µM
CCn1c(-c2ccccc2)c(C(=O)COC(=O)/C=C/c2ccco2)c2ccccc21	> 10 µM	IC50 (HEPG2TOX_HILL_SLOPE 1.75, HEPG2TOX_R_SQUARED 0.877, PBLUC_HILL_SLOPE 15.9, PBLUC_R_SQUARED 0.384, read-out: LUCIFERASE INFECTION ASSAY - IC50): 9.6 µM
COc1ccc(-c2nc(C(=O)N3c4ccccc4CC3C)cs2)cc1OC (configuration not stated)	> 10 µM	IC50 (HEPG2TOX_HILL_SLOPE 1.77, HEPG2TOX_R_SQUARED 0.837, PBLUC_HILL_SLOPE 1.16, PBLUC_R_SQUARED 0.492, read-out: LUCIFERASE INFECTION ASSAY - IC50): 1.9 µM
CC(C)c1noc(CN2CCN(c3ncnc4sc(-c5ccccc5)cc34)CC2)n1	6.72 µM	IC50 (HEPG2TOX_HILL_SLOPE 1.77, HEPG2TOX_R_SQUARED 0.986, PBLUC_HILL_SLOPE 2.11, PBLUC_R_SQUARED 0.835, read-out: LUCIFERASE INFECTION ASSAY - IC50): 2.37 µM
CCN(CC)c1ccc(NC(=O)c2ccc(Br)o2)cc1S(=O)(=O)Nc1ccccc1OC	4.43 µM	IC50 (HEPG2TOX_HILL_SLOPE 1.78, HEPG2TOX_R_SQUARED 0.619, PBLUC_HILL_SLOPE 2.27, PBLUC_R_SQUARED 0.536, read-out: LUCIFERASE INFECTION ASSAY - IC50): 1.68 µM
O=C(/C=C/c1cccnc1)c1ccc(S(=O)(=O)N2CCCC2)cc1	7.23 µM	IC50 (HEPG2TOX_HILL_SLOPE 1.78, HEPG2TOX_R_SQUARED 0.606, PBLUC_HILL_SLOPE 4.03, PBLUC_R_SQUARED 0.736, read-out: LUCIFERASE INFECTION ASSAY - IC50): 4.19 µM
CN(C)c1cccc(-c2ccc3nnc(-c4ccc5c(c4)OCO5)n3c2)c1	5.11 µM	IC50 (HEPG2TOX_HILL_SLOPE 1.77, HEPG2TOX_R_SQUARED 0.976, PBLUC_HILL_SLOPE 2.39, PBLUC_R_SQUARED 0.666, read-out: LUCIFERASE INFECTION ASSAY - IC50): 2.04 µM
Cc1cc(=O)n2ncnc2n1CC(O)COc1ccc(Oc2ccccc2)cc1 (configuration not stated)	8.2 µM	IC50 (HEPG2TOX_HILL_SLOPE 1.76, HEPG2TOX_R_SQUARED 0.892, PBLUC_HILL_SLOPE 2.97, PBLUC_R_SQUARED 0.356, read-out: LUCIFERASE INFECTION ASSAY - IC50): 3.91 µM
CCCCc1[nH]nc2ccnc(-c3cncc(OC)c3)c12	> 10 µM	IC50 (HEPG2TOX_HILL_SLOPE 1.78, HEPG2TOX_R_SQUARED 0.895, read-out: LUCIFERASE INFECTION ASSAY - IC50): > 10 µM
Cn1c(-c2ccccc2)c(C(=O)CSc2nnc(-c3cccs3)[nH]2)c2ccccc21	7.84 µM	IC50 (HEPG2TOX_HILL_SLOPE 1.76, HEPG2TOX_R_SQUARED 0.96, PBLUC_HILL_SLOPE 1.67, PBLUC_R_SQUARED 0.727, read-out: LUCIFERASE INFECTION ASSAY - IC50): 2.1 µM
CC(C)NC(=O)c1csc(C(O)c2ccc(C(C)(C)C)cc2)n1 (configuration not stated)	8.8 µM	IC50 (HEPG2TOX_HILL_SLOPE 1.76, HEPG2TOX_R_SQUARED 0.8, PBLUC_HILL_SLOPE 2.52, PBLUC_R_SQUARED 0.456, read-out: LUCIFERASE INFECTION ASSAY - IC50): 3.68 µM
O=c1nc(-c2ccccn2)[nH]c2scc(-c3ccccc3)c12	2.25 µM	IC50 (HEPG2TOX_HILL_SLOPE 1.76, HEPG2TOX_R_SQUARED 0.7, PBLUC_HILL_SLOPE 112, PBLUC_R_SQUARED 0.058, read-out: LUCIFERASE INFECTION ASSAY - IC50): 2.21 µM
COc1ccc(N/N=C(\C=N\O)C(=O)c2ccccc2)cc1	5.58 µM	IC50 (HEPG2TOX_HILL_SLOPE 1.74, HEPG2TOX_R_SQUARED 0.984, PBLUC_HILL_SLOPE 2.38, PBLUC_R_SQUARED 0.768, read-out: LUCIFERASE INFECTION ASSAY - IC50): 2.22 µM
Cc1ccsc1C(=O)Nc1nc2cc3c(cc2s1)OCCO3	> 10 µM	IC50 (HEPG2TOX_HILL_SLOPE 1.74, HEPG2TOX_R_SQUARED 0.923, PBLUC_HILL_SLOPE 0.323, PBLUC_R_SQUARED 0.422, read-out: LUCIFERASE INFECTION ASSAY - IC50): 0.658 µM
